Holding throughout (type): in vivo
The nature of data set [1]: Drug concentration in plasma of mice of the B cell activation study. Particulars: C57BL/6, plasma; mouse, 5 mg/kg oral, 16 h after administration. The procedure: The animals of each group were administered, then were placed in CO2 for anesthesia at designated time points, blood samples were taken from […] via retro-orbital bleeding, and heparin was used for anticoagulation; 90 μL of whole blood was taken from mice of each group, and added to a 96 well culture plate, and anti-mouse IgD antibody (BIO-RAD, Cat #MCA4693) was added to each well to a final concentration of 0.01 μg/μL (respectively for each drug-treated group and anti-IgD antibody-inducted vehicle group); in addition, 90 μL of whole blood of mice in the vehicle group was taken and added to the 96-well culture plate, and PBS (phosphate buffer, GIBCO, Cat # C20012500BT) was added to each well to a final concentration of 0.01 μg/μL (namely, the vehicle control group); Each group was mixed well and incubated in a 37° C./5% CO2 incubator for 4 hours. In addition, the blood of mice in the drug-treated group was centrifuged to separate plasma for blood concentration analysis.

For data set [2], the system named is CIA (collagen induced arthritis) rats. Description: Rat arthritis model induced by type II collagen (CIA). Particulars: compared with vehicle control group. The procedure:
An appropriate amount of bovine type II collagen (CII, Chondrex (Redmond, Wash., USA), Cat #20021) was weighed and dissolved in 0.1 mole of acetic acid (SPGC Sinopharm Chemical Reagent Co., Ltd (Shanghai, P.R. China), Cat #: 10000218.), which was formulated into a solution with a concentration of 6 mg/mL, stirred at 4° C. overnight, and added with an equal volume of Freund's incomplete adjuvant (Sigma-Aldrich.(St. Louis, Mo., USA), Cat #: SLBW0366.), fully emulsified to prepare an emulsion with a CII concentration of 3 mg/mL.
Female Lewis rats were purchased from Beijing Vital River Laboratory Animal Technology Co., Ltd. (certificate number 20200928Aazz0619000579, initial body weight of 110-130 grams), and 6 rats were randomly selected as a normal group; and all of the remaining rats were immunized. In the first immunization on day 0, the rats except those in the normal group were anesthetized with isoflurane (Hebei Yipin Pharmaceutical Co., Ltd., Lot: C002170601.), and then disinfected with 75% alcohol, and 0.2 mL of emulsion was injected intradermally at the base of the tail thereof. A second challenge was carried out on day 7, and 0.2 mL of emulsion was intradermally injected using the same method. Once the animals developed symptoms on day 10, the incidence conditions thereof were closely monitored.
After grouping, the normal group was not administered, and the rats in the other groups were administered with the control vehicle, 0.25 mg/kg and 4 mg/kg of the reference GDC-0853, and each dose of compound 1 orally once a day until the end of the experiment.
The paw volume was measured on day 10 after immunization, and the left and right hind paw volumes (V) were measured every day after the paw volume increase was detected.
The arthrosis paw volumes of the left and right hind limbs of each animal were measured, and the average paw volume (APV) was calculated according to the following formula: Average paw volume APV=(Vleft+Vright)/2
The average arthrosis paw volume of each animal before administration was used as the baseline (or considered 100% inhibition of inflammation). […]
The area under the curve (AUC) of the average paw volume swelling is the area under the curve of the arthrosis score swelling calculated by the trapezoid method, and the calculation formula is: AUCAPS=1/2×(APSd1+APSd2)×(d2−d1)+1/2×(APSd2+APSd3)×(d3−d2)+ . . . +1/2×(APSdn+APSd(n-1))×(dn−dn-1). […]
ED50 is calculated by XLfit software according to the AUC inhibition ratio of the area under the curve of the average paw volume swelling. […]

Data set [3] concerns ITP mice (anti-mouse CD41 antibodies). Description: Idiopathic thrombocytopenic purpura induced by anti-CD41 antibody in mice. Particulars: 8 hours after modeling, single oral dose. The procedure: Male C57BL/6 mice were purchased from Shanghai Lingchang Biotechnology Co., Ltd. (certificate number 20180003011079, initial body weight of 18-20 grams), and were randomly grouped according to Table 4, with 8 mice in each group. […] When modeling, each mouse was intraperitoneally injected with 200 μL of PBS solution containing 2 μg of anti-mouse CD41 antibodies (BD, Cat #: 553487, Lot #: 7026765).
Eight hours and twenty-four hours after modeling, the whole blood was collected and placed in a centrifuge tube coated with 10% citrate-phosphate-dextrose-adenine (CPDA), and the level of platelets (PLT) in the whole blood was measured by an XT-2000i (SYSMEX) automatic blood analyzer (Shanghai Laboratory Animal Research Centre Sino-British SIPPR/B & K Lab Animal Ltd).
The average level of platelets in peripheral blood was analyzed with Graphpad statistical software by one way ANOVA followed by Fisher LSD multiple comparison test, and the p value was calculated, wherein *p<0.05 indicated a statistically significant difference compared with the vehicle control group, **p<0.01 indicated a statistically extremely significant difference compared with the vehicle control group, and ##p<0.01 indicated a statistically extremely significant difference compared with the normal group. […]

In the case of `C[C@H]1CN(C2COC2)C[C@H](C)N1c1ccc(Nc2cc(-c3ccnc(-n4ccn5c6c(cc5c4=O)CC(C)(C)C6)c3CO)cn(C)c2=O)nc1` [Compound 1, 2-(5-((5-((2S,6S)-2,6-dimethyl-4-(oxetan-3-yl)piperazin-1-yl)pyridin-2-yl)amino)-3′-(hydroxymethyl)-1-methyl-6-oxo-1,6-dihydro-[3,4′-bipyridin]-2′-yl)-7,7-dimethyl-7,8-dihydro-2H-cyclopenta[4,5]pyrrolo[1,2-a]pyrazin-1(6H)-one], in data set [1], the concentration at 16 h was determined as 6.27 ± 1.68 ng/mL. In addition, the “effect on paw volume” value in data set [2] (0.25 mg/kg oral QD) and in data set [2] (4 mg/kg oral QD) was “significantly increase the continuous improvement of paw volume swelling” throughout. The minimum effective dose in data set [3] came out at 0.04 mg/kg.

(Values after patent US11655254B2, “Substituted piperazines as BTK inhibitors” (HUTCHISON MEDIPHARMA LIMITED, priority 2020, dated 2023).)
